Laboratory results: patent US12473294B2, “Selective modulators of mutant LRRK2 proteolysis and associated methods of use” (Arvinas Operations, Inc., priority 2020, dated 2025)

How the values were obtained:
G2019S LRRK2 = molecular target: T1, G2019S LRRK2 (Homo sapiens, UniProt Q5S007, G2019S); experiment: LRRK2 degradation HiBit assay, G2019S LRRK2 tagged with a HiBit tag expressed in HEK293 cells; type: cell-based; conditions: 24 hours compound incubation; for Dmax: HEK293, HEK293 cells; for DC50: HEK293 cells
T1 construct: expressed in transfected cells; host or cells: HEK293 (ATCC CRL-1573)
T1 sequence (Q5S007 whole entry G2019S): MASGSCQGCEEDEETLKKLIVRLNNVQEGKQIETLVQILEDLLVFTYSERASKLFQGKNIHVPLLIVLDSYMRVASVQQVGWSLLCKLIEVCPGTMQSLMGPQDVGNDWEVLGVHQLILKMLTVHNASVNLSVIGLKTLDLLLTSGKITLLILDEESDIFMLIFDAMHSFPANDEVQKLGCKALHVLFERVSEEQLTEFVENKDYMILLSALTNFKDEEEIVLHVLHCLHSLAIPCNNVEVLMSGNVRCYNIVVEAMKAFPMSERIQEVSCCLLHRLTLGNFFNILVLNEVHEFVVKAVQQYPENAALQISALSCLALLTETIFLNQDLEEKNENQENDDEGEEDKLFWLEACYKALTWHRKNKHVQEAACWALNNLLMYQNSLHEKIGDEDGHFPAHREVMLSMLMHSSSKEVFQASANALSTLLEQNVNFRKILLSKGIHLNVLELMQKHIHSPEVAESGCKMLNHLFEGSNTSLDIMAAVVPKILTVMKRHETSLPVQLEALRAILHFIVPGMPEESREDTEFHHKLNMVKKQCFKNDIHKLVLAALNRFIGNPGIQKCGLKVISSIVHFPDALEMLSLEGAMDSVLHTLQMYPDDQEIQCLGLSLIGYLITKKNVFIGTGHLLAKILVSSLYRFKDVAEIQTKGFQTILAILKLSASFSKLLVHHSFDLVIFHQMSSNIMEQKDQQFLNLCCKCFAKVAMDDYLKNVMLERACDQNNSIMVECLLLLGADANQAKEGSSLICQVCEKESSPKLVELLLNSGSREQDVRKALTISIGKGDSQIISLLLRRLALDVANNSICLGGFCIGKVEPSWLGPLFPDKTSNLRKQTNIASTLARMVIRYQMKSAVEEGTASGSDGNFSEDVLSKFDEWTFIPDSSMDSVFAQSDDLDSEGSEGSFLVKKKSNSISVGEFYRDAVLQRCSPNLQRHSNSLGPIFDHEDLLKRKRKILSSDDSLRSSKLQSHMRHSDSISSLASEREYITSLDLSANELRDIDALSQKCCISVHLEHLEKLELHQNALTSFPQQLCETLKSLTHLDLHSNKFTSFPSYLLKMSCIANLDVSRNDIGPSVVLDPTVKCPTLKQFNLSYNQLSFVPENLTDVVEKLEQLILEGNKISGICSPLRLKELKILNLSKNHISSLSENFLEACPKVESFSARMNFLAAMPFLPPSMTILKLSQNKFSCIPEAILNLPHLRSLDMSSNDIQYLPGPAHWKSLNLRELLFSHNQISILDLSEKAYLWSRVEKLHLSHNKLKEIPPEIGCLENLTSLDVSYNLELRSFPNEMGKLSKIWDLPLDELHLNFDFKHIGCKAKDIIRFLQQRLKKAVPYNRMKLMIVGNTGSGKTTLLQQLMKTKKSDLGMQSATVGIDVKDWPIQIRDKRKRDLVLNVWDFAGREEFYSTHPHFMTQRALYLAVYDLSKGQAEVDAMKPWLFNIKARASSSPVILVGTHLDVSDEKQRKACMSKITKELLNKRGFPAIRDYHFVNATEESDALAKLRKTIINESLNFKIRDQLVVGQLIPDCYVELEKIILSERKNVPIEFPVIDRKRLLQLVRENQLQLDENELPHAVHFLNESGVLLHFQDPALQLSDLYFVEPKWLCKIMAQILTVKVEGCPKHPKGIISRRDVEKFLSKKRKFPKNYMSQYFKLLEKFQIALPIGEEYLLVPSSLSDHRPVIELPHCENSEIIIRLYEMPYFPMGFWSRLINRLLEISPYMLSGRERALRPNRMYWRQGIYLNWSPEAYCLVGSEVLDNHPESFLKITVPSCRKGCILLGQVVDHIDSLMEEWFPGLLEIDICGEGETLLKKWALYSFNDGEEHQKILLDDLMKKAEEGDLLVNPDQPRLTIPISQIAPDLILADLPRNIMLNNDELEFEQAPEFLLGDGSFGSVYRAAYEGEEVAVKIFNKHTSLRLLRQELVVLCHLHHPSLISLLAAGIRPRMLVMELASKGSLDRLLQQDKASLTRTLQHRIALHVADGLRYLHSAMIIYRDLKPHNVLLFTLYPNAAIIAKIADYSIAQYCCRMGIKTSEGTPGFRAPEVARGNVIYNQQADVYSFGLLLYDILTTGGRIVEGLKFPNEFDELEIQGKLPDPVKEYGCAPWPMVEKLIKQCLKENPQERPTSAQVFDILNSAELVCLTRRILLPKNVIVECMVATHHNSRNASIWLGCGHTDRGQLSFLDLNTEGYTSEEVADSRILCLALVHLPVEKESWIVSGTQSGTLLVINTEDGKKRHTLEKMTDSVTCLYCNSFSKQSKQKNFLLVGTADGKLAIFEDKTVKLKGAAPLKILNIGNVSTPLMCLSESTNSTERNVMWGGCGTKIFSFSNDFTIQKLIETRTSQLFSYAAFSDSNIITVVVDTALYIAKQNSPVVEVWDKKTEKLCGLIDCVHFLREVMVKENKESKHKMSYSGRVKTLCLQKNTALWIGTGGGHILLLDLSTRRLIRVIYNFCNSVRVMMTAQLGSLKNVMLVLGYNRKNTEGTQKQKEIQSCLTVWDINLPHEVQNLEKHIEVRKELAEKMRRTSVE
Protocol: (§1) The assay measures the degradation of wildtype and G2019S LRRK2 tagged with a HiBit tag on the C-terminus of the protein that was expressed from a mammalian expression vector, driven by the ubiquitin promoter in HEK293 cells. Each compound dose-response was repeated on three separate days, on three separate plates each day.
(§2) Plasmid Preparation. Transfection mixes were assembled as follows and incubated for 30 minutes at room temperature. In a 15 mL tube, 5.25 mL Opti-MEM (no additions) was mixed with 17 μL Firefly Luciferase plasmid at 1 μg/μL and 158 μL WT plasmid DNA at 1 μg/μL (175 μg total DNA) were mixed by flicking. In a new 15 mL tube, 5.25 mL OptiMEM was mixed with 17 μL Firefly Luciferase plasmid at 1 μg/μL and 158 μL G2019S plasmid DNA at 1 μg/μL (175 μg total DNA) were mixed by flicking. X-tremeGene HP was mixed thoroughly using a vortex. Next, 175 μL was added to each tube and flicked to mix. Both tubes were left to incubate for 30 minutes at room temperature.
While the transfection mixes were incubating, HEK293 cells acquired from ATCC (ATCC CRL-1573) were harvested with trypsin. Once cells are detached, the cells were resuspended in 12 mL OptiMEM+5% FBS and transferred to a 50 mL tube. The cells were mixed well and counted. Using OptiMEM+5% FBS, the cells were diluted in two 250 mL conical tubes at 0.71×10^6 cells/mL in 70 mL. One tube was labeled “WT” and the other “G2019S”. The WT and G2019S transfection mixes were added dropwise to the corresponding 250 mL tubes. The tubes were mixed first by pipetting then by swirling. The tubes were incubated at room temperature for at least 5 minutes.
(§3) Each tube was swirled before dispensing and after every three plates. Seventy microliters of cells were dispensed with WT or G2019S DNA to seven plates each. Three plates of each were tested with compound plate one (preparation described below) and three plates of each were tested with compound plate two (preparation described below). The first plate from each set served as a “prime” plate and was not used to test compounds. Each plate was incubated in the hood for 10 minutes before placing in the 37° C. incubator for 24 hours.
(§4) Preparation of Compound and Assay Plates. Two compound plates were made using 96 well polypropylene plates. Compounds were made up at 10 mM and were diluted to 1 mM in 30 μL. Each dose response curve included a well of DMSO, as a negative control and for normalization, and a well of 0.5 μM of Exemplary Compound 4 as a positive control. In addition to seven test compounds, each plate also included a dose response of Exemplary Compound 4. The compound plates were spun down along at 1200 rpm for 2 minutes.
(§5) The two compound plates were then mixed and 2 μL was diluted in intermediate plates having 248 μL of Opti-Mem in each well. Next, 10 μL diluted compounds from the intermediate plates were added to each test plate (three WT and three G2019S plates per compound plate for a total of 12 assay plates). The plates were incubated for 24 hours at 37° C.
(§6) All assay plates and all Nano-Glo Dual-Luciferase Reporter Assay System components (except for the DLR substrate) were equilibrated to room temperature. Next, the luciferase buffer was mixed with the lyophilized amber bottle until fully dissolved, and 75 μL of the luciferase mixture was added to each well of each assay plate. The assay plates were incubated for 10 minutes at room temperature with shaking for at least 5 minutes, and then read on a plate reader.
(§7) Developing Plates and Analyzing Data. One milliliter of DLR substrate and 1 mL LgBiT Protein were added to the Stop and Glo buffer, and 75 μL of the mixture was added to each well of each plate. Optically clear seals were added to each plate and each plate was incubated for 20 minutes with shaking for at least 10 minutes, and then read on a plate reader. […]

wildtype LRRK2 = molecular target: T2, wildtype LRRK2 (Homo sapiens, UniProt Q5S007); experiment: LRRK2 degradation HiBit assay, wildtype LRRK2 tagged with a HiBit tag in HEK293 cells; type: cell-based; conditions: 24 hours compound incubation; for DC50: read-out: *WT DC50; for Dmax: read-out: ** WT Dmax (%)
T2 construct: endogenous in cells; host or cells: HEK293 with HiBit knocked in at the 3' end of the endogenous LRRK2 gene, stably expressing firefly luciferase
T2 sequence (Q5S007 whole entry): as the sequence (Q5S007 whole entry G2019S) above, with S2019G counted along it
Protocol: as §1, with “repeated on two separate days,” for “repeated on three separate days,”
as §2
While the transfection mixes were incubating, HEK293 cells (acquired from ATCC; ATCC CRL-1573) were harvested with trypsin. Once cells are detached, the cells were resuspended in 12 mL OptiMEM+5% FBS and transferred to a 50 mL tube. The cells were mixed well and counted. Using OptiMEM+5% FBS, the cells were diluted in two 250 mL conical tubes at 0.71×10^6 cells/mL in 70 mL. One tube was labeled “WT” and the other “G2019S”. The WT and G2019S transfection mixes were added dropwise to the corresponding 250 mL tubes. The tubes were mixed first by pipetting then by swirling. The tubes were incubated at room temperature for at least 5 minutes.
as §3, §4, §5, §6, §7

Row | SMILES | Dmax (G2019S LRRK2) [%] | DC50 (G2019S LRRK2) [nM] | DC50 (wildtype LRRK2) [nM] | Dmax (wildtype LRRK2) [%]
1 | CC1=C(C(=O)Nc2ccc3[nH]nc(-c4ccnc(N5CCN(CC6CCN(C7CCN(c8ccc9c(c8)C(=O)N(C8CCC(=O)NC8=O)C9=O)CC7)CC6)CC5)c4)c3c2)[C@@H](C)n2nnnc2N1C (stereo partly drawn) [compound 18, (7R)-N-(3-(2-(4-((1-(1-(2-(2,6-dioxopiperidin-3-yl)-1,3-dioxoisoindolin-5-yl)piperidin-4-yl)piperidin-4-yl)methyl)piperazin-1-yl)pyridin-4-yl)-1H-indazol-5-yl)-4,5,7-trimethyl-4,7-dihydrotetrazolo[1,5-a]pyrimidine-6-carboxamide] | 50 to 70 | 50 to 100 | ≥ 100 | < 50
2 | CC1=C(C(=O)Nc2ccc3[nH]nc(-c4ccnc(N5CCN(CCN6CCC(CN7CCN(c8ccc9c(c8)C(=O)N(C8CCC(=O)NC8=O)C9=O)CC7)CC6)[C@@H](C)C5)c4)c3c2)[C@H](C)n2nnnc2N1C (stereo partly drawn) [compound 31, (7S)-N-(3-{2-[(3S)-4-{2-[4-({4-[2-(2,6-dioxopiperidin-3-yl)-1,3-dioxo-2,3-dihydro-1H-isoindol-5-yl]piperazin-1-yl}methyl)piperidin-1-yl]ethyl}-3-methylpiperazin-1-yl]pyridin-4-yl}-1H-indazol-5-yl)-4,5,7-trimethyl-4H,7H-[1,2,3,4]tetrazolo[1,5-a]pyrimidine-6-carboxamide] | < 50 | ≥ 100 | ≥ 100 | 
3 | CC1=C(C(=O)Nc2ccc3[nH]nc(-c4ccnc(N5C[C@@H](C)N(CCOCCOCCN6CCN(c7ccc8c(c7)C(=O)N(C7CCC(=O)NC7=O)C8=O)CC6)[C@@H](C)C5)c4)c3c2)Cn2nnnc2N1C (stereo partly drawn) [compound 4, N-(3-(2-((3R,5S)-4-(2-(2-(2-(4-(2-(2,6-dioxopiperidin-3-yl)-1,3-dioxoisoindolin-5-yl)piperazin-1-yl)ethoxy)ethoxy)ethyl)-3,5-dimethylpiperazin-1-yl)pyridin-4-yl)-1H-indazol-5-yl)-4,5-dimethyl-4,7-dihydrotetrazolo[1,5-a]pyrimidine-6-carboxamide] |  | ≥ 100 | ≥ 100 | 
4 | CC1=C(C(=O)Nc2ccc3[nH]nc(-c4ccnc(N5CCN(CCOCCN6CC7(C6)CN(c6ccc8c(c6)C(=O)N(C6CCC(=O)NC6=O)C8=O)C7)CC5)c4)c3c2)[C@@H](C)n2nnnc2N1C (stereo partly drawn) [compound 20, (7R)-N-[3-(2-{4-[2-(2-{6-[2-(2,6-dioxopiperidin-3-yl)-1,3-dioxo-2,3-dihydro-1H-isoindol-5-yl]-2,6-diazaspiro[3.3]heptan-2-yl}ethoxy)ethyl]piperazin-1-yl}pyridin-4-yl)-1H-indazol-5-yl]-4,5,7-trimethyl-4H,7H-[1,2,3,4]tetrazolo[1,5-a]pyrimidine-6-carboxamide] |  | ≥ 100 | ≥ 100 | 
5 | CC1=C(C(=O)Nc2ccc3[nH]nc(-c4ccnc(N5CCN(CCN6CCC(CN7CCN(c8ccc9c(c8)C(=O)N(C8CCC(=O)NC8=O)C9=O)CC7)CC6)CC5)c4)c3c2)[C@H](C)n2nnnc2N1C (stereo partly drawn) [compound 27, (7S)-N-{3-[2-(4-{2-[4-({4-[2-(2,6-dioxopiperidin-3-yl)-1,3-dioxo-2,3-dihydro-1H-isoindol-5-yl]piperazin-1-yl}methyl)piperidin-1-yl]ethyl}piperazin-1-yl)pyridin-4-yl]-1H-indazol-5-yl}-4,5,7-trimethyl-4H,7H-[1,2,3,4]tetrazolo[1,5-a]pyrimidine-6-carboxamide] | 50 to 70 | ≥ 100 | ≥ 100 | 

Results, then the compound that gave them:

Row | Dmax (G2019S LRRK2) [%] | DC50 (G2019S LRRK2) [nM] | DC50 (wildtype LRRK2) [nM] | Dmax (wildtype LRRK2) [%] | SMILES
6 | < 50 | 10 to 50 | ≥ 100 |  | CC1=C(C(=O)Nc2ccc3[nH]nc(-c4ccnc(N5CCN(CCN6CCN(CC7CCN(c8ccc9c(c8)C(=O)N(C8CCC(=O)NC8=O)C9=O)CC7)CC6)CC5)c4)c3c2)C(C)(C)n2nnnc2N1C (stereo not drawn) [compound 35, N-{3-[2-(4-{2-[4-({1-[2-(2,6-dioxopiperidin-3-yl)-1,3-dioxo-2,3-dihydro-1H-isoindol-5-yl]piperidin-4-yl}methyl)piperazin-1-yl]ethyl}piperazin-1-yl)pyridin-4-yl]-1H-indazol-5-yl}-4,5,7,7-tetramethyl-4H,7H-[1,2,3,4]tetrazolo[1,5-a]pyrimidine-6-carboxamide]
7 | 50 to 70 | 10 to 50 | ≥ 100 | < 50 | CC1=C(C(=O)Nc2ccc3[nH]nc(-c4ccnc(N5CCN(CC6CCN(CC7CCN(c8ccc9c(c8)C(=O)N(C8CCC(=O)NC8=O)C9=O)CC7)CC6)CC5)c4)c3c2)Cn2nnnc2N1C (stereo not drawn) [compound 13, N-(3-(2-(4-((1-((1-(2-(2,6-dioxopiperidin-3-yl)-1,3-dioxoisoindolin-5-yl)piperidin-4-yl)methyl)piperidin-4-yl)methyl)piperazin-1-yl)pyridin-4-yl)-1H-indazol-5-yl)-4,5-dimethyl-4,7-dihydrotetrazolo[1,5-a]pyrimidine-6-carboxamide]
8 | 50 to 70 | < 10 | 10 to 50 | 50 to 70 | CC1=C(C(=O)Nc2ccc3[nH]nc(-c4ccnc(N5C[C@@H](C)N(CC6CCN(CC7CCN(c8ccc9c(c8)C(=O)N(C8CCC(=O)NC8=O)C9=O)CC7)CC6)[C@@H](C)C5)c4)c3c2)C(C)n2nnnc2N1C (stereo partly drawn) [compound 2, N-(3-(2-((3S,5R)-4-((1-((1-(2-(2,6-dioxopiperidin-3-yl)-1,3-dioxoisoindolin-5-yl)piperidin-4-yl)methyl)piperidin-4-yl)methyl)-3,5-dimethylpiperazin-1-yl)pyridin-4-yl)-1H-indazol-5-yl)-4,5,7-trimethyl-4,7-dihydrotetrazolo[1,5-a]pyrimidine-6-carboxamide]
9 | < 50 | 10 to 50 | ≥ 100 | < 50 | CC1=C(C(=O)Nc2ccc3[nH]nc(-c4ccnc(N5C[C@@H](C)N(CC6CCN(CC7CCN(c8ccc9c(c8)C(=O)N(C8CCC(=O)NC8=O)C9=O)CC7)CC6)[C@@H](C)C5)c4)c3c2)C(C)(C)n2nnnc2N1C (stereo partly drawn) [compound 6, N-(3-(2-((3S,5R)-4-((1-((1-(2-(2,6-dioxopiperidin-3-yl)-1,3-dioxoisoindolin-5-yl)piperidin-4-yl)methyl)piperidin-4-yl)methyl)-3,5-dimethylpiperazin-1-yl)pyridin-4-yl)-1H-indazol-5-yl)-4,5,7,7-tetramethyl-4,7-dihydrotetrazolo[1,5-a]pyrimidine-6-carboxamide]
10 | 50 to 70 | 10 to 50 | 10 to 50 | < 50 | CC1=C(C(=O)Nc2ccc3[nH]nc(-c4ccnc(N5CCN(C6CN(CC7CCN(c8ccc9c(c8)C(=O)N(C8CCC(=O)NC8=O)C9=O)CC7)C6)CC5)c4)c3c2)[C@@H](C)n2nnnc2N1C (stereo partly drawn) [compound 24, (7R)-N-[3-(2-{4-[1-({1-[2-(2,6-dioxopiperidin-3-yl)-1,3-dioxo-2,3-dihydro-1H-isoindol-5-yl]piperidin-4-yl}methyl)azetidin-3-yl]piperazin-1-yl}pyridin-4-yl)-1H-indazol-5-yl]-4,5,7-trimethyl-4H,7H-[1,2,3,4]tetrazolo[1,5-a]pyrimidine-6-carboxamide]
